Common to all, as to format: cell-based
One test has as its target T1, hOX2R (Homo sapiens, UniProt O43614).
T1 sequence (O43614 1-444): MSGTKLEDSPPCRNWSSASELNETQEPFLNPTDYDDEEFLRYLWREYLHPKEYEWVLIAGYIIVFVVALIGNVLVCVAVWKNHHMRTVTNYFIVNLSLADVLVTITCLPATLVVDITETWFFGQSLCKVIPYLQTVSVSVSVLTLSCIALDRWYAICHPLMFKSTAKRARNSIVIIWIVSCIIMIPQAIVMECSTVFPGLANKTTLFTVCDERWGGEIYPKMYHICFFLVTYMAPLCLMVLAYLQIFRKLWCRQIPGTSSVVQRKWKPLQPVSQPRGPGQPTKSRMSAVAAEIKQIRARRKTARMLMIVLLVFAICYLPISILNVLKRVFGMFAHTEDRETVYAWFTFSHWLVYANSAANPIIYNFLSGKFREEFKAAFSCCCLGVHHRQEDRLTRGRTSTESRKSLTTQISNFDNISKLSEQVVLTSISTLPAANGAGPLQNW
Put plainly: Whole cell FLIPR functional assay, comparison with reference compounds, hOX2R. Details: expressed in transfected cells. The following applies: read-out: hOX2R pIC50 (converted). An excerpt:
(§1) As indicated herein, by whole cell FLIPR functional assay data and by comparison with reference compounds not claimed within the present invention, the compounds of the present invention provide increased selectivity for the orexin-1 receptor over the orexin-2 receptor. The increased selectivity for the orexin-1 receptor over the orexin-2 receptor in the whole cell FLIPR functional assay provides enhanced predictive value for determining in vivo efficacy. Increasing the functional selectivity for the orexin-1 receptor reduces the potential for dual receptor antagonism in vivo. Such greater functional selectivity may provide benefits over other orexin receptor antagonists that are known in the art.

For test [1], the target named is T2, hOX1R (Homo sapiens, UniProt O43613).
T2 sequence (O43613 1-425): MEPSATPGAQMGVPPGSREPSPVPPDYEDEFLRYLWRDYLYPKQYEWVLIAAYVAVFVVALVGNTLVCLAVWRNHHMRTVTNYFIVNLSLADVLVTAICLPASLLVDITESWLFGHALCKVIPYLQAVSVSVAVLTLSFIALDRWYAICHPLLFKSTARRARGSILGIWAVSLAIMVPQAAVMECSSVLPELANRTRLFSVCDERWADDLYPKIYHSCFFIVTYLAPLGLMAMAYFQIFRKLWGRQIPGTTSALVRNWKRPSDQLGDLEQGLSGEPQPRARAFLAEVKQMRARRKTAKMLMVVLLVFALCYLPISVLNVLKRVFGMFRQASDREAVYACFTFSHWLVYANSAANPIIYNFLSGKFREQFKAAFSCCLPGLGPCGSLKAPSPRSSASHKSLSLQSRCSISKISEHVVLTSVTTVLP
In words: Whole cell FLIPR functional assay, comparison with reference compounds, hOX1R. Also on record: expressed in transfected cells. The settings on record: for Selectivity: orexin-1 receptor over orexin-2 receptor; for IC50: read-out: hOX1R pIC50 (converted).
Excerpt: as §1

The target in a further test is T3, orexin-1 (Homo sapiens, UniProt O43613).
T3 construct: expressed in transfected cells
T3 sequence (O43613 1-425): T2 sequence (O43613 1-425)
In words: Antagonism against orexin-1 in the aforementioned (above identified) intracellular calcium assays. An excerpt: Antagonism against orexin receptors has been measured for each example compound using at least one of the following procedures. […] These values may fluctuate depending on the daily cellular assay performance. Fluctuations of this kind are known to those skilled in the art. […] Data highlighted with an asterix (*) is derived from a single experiment, otherwise all data reported is an average of at least two independant replicate experiments. […]

Test [2] has as its target T2, hOX1R. In words: Intracellular calcium measurements using division-arrested cells, OX1. The following applies: agonist orexin A at 2×EC50, * = single experiment, otherwise average of at least two, read-out: pIC50 OX1 (converted). In outline: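 Division-arrested cells expressing human OX1 or OX2 were seeded for 16 h, then loaded with Calcium 5 dye plus probenecid for 1 h at 37 °C. Compounds in HEPES-buffered HBSS with 0.1% BSA, pH 7.4, top final concentration 10 μM, were added 10 min before the FlexStation calcium read.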

The structures appear in SMILES notation.

Turning to `CC(C)[C@H](CNc1ccc(Cl)cn1)N(C)C(=O)c1ccccc1-c1ccccc1`, the IC50 at hOX2R was 2000 nM. At hOX1R [1], the Selectivity result is on record as “Selectivity 1.9x” and the IC50 was 1000 nM.
For `CN(CCNc1ccc(Cl)cn1)C(=O)c1ccccc1-c1ccccc1`, in that order: 79.4 nM, “Selectivity 1.1x” and 63.1 nM.
Take `CC[C@@H](COc1nc2ccccc2n1C)NC(=O)c1cc(C)ccc1-n1nccn1` [(S)-5-methyl-N-(1-((1-methyl-1H-benzo[d]imidazol-2-yl)oxy)butan-2-yl)-2-(2H-1,2,3-triazol-2-yl)benzamide]: on orexin-1, the IC50 was more than 10000 nM.
With `CC(C)[C@@H](CNc1ccc(Cl)cn1)N(C)C(=O)c1ccccc1-c1ccccc1` [Example 10, (S)—N-(1-((5-chloropyridin-2-yl)amino)-3-methylbutan-2-yl)-N-methyl-[1,1′-biphenyl]-2-carboxamide], the IC50 on hOX2R was 6310 nM; on hOX1R [2] it was 79.4 nM; at hOX1R [1], 79.4 nM. In addition, the Selectivity result at hOX1R [1] was “Selectivity 80x”.
In the case of `CC[C@@H](CNc1ccc2nccn2c1)N(C)C(=O)c1cc(Cl)ccc1-n1nccn1` [(S)-5-chloro-N-(1-(imidazo[1,2-a]pyridin-6-ylamino)butan-2-yl)-N-methyl-2-(2H-1,2,3-triazol-2-yl)benzamide], on orexin-1, the IC50 is more than 10000 nM.
Turning to `CC[C@@H](CNc1ccc(Cl)cn1)N(C)C(=O)c1cc(C)ccc1N1CCN(C)CC1` [(S)—N-(1-((5-chloropyridin-2-yl)amino)butan-2-yl)-N,5-dimethyl-2-(4-methylpiperazin-1-yl)benzamide], on orexin-1, the IC50 was more than 10000 nM.
On the same count and under the same terms, the figure for `CC[C@@H](CNc1ccc(Cl)cn1)N(C)C(=O)c1cc(C(F)(F)F)ccc1-n1ccnn1` [(S)—N-(1-((5-chloropyridin-2-yl)amino)butan-2-yl)-N-methyl-2-(1H-1,2,3-triazol-1-yl)-5-(trifluoromethyl)benzamide] is 4900 nM.

The values are drawn from US10611760B2, “Therapeutic compounds as inhibitors of the orexin-1 receptor” (C4X Discovery Limited, priority 2014, dated 2020).
